What was measured:
[1] = test system: 5-LO mediated product synthesis; experiment: 5-LO mediated product synthesis in neutrophils under cell-stress (NaCl or diamide); type: cell-based; conditions: in the presence of cell-stress (0.3 M NaCl or 0.25 mM diamide), human neutrophils (Figure 4A-B)
Experimental: Inhibitory activity of compound 9hj on 5-LO mediated product synthesis in human neutrophils is shifted to the right by factor 10 in the presence of cell-stress (i.e., 0.3 M NaCl or 0.25 mM diamide), which is typical for non-redox type 5-LO inhibitors or FLAP inhibitors (Figure 4A-B). To intact neutrophils, 0.3 M sodium chloride (NaCl) or vehicle (DMSO) was added 3 min before addition of 9hj at 37°C. After addition of 9hj for another 10 min at 37°C, cells were stimulated with 20 µM AA for 10 min at 37°C. Data are expressed as percentage of vehicle control (0.1% DMSO). 100% controls correspond to 174.41 ng mL^-1 for 0.3 M NaCl and 50.73 ng mL^-1 for control (DMSO) (Figure 4A). To intact neutrophils, 0.25 mM diamide or vehicle (DMSO) was added 5 min before addition of 9hj at 37°C (Figure 4b). After addition of 9hj for another 15 min at 37°C, cells were stimulated with 2.5 µM A23187 plus 20 µM AA for 10 min at 37°C. Data are expressed as percentage of vehicle control (0.1% DMSO). 100% controls correspond to 1148.61 ng mL^-1 for 0.25 mM diamide and 802.06 ng mL^-1 for control (DMSO) (Figure 4B).

[2] = test system: zymosan-induced peritonitis; experiment: Zymosan-induced peritonitis in mice; type: in vivo; conditions: i.p., male mice, 30 min before zymosan; LTC4 levels in peritoneal exudate (Figure 9)
Experimental: Cell based and cell-free assays carried out in biological studies, immunofluorescence microscopy analysis and zymosan-induced peritonitis in mice are performed as described hereinabove (Pegola, C. and et al., British J. Pharmacology, 2014, D01:10.1111/bph.12625). In the cell based assays (intact neutrophils or monocytes), 5-LO mediated product formation is started, after pre-incubation with test compounds (or control DMSO) for 15 min. at 37 °C, with addition of Ca-ionophore A23187 (2.5 µM) to the fresh 5 x 10^6 neutrophils or monocytes suspended in 1 ml of PGC buffer (phosphate buffered saline (PBS) solution containing 1 mg ml^-1 glucose and 1mM CaCl2, pH 7.4). After the incubation for 10 min. at 37 °C, the reaction is ended with addition of 1 ml of methanol, and 30 µL 1 N HCl, 200 ng prostaglandin B1 and 500 µL PBS are added to the mixture. […] Resulting 5-LO mediated products are extracted and analysed by the known method of high pressure liquid chromatography (HPLC) (Pergola, C. Proc Natl. Acad. Sci. U.S.A. 2008, 105, 19881). 5-LO mediated product formation (LTB4 and all trans isomers, and 5 (S)-hydro(pero)xy-6-trans-8, 11, 14-cis-eicosatetraenoic acid, 5-H(p)ETE) is expressed as ng per 10^6 cell. Cysteinyl-LTs have not been analyzed because that the amount of C4, D4 and E4 and LTB4 oxidation products are below the detection limit. […]

5-LO plus FLAP = biological target: T1, 5-LO plus FLAP (Homo sapiens, UniProt P20292); experiment: 5-LO mediated product synthesis in HEK293 cells transfected with 5-LO plus FLAP; type: cell-based; conditions: 2.5 µM A23187 plus 3 µM AA (Figure 7)
T1 construct: expressed in transfected cells; host or cells: HEK293 (stably transfected)
T1 sequence (P20292 1-161): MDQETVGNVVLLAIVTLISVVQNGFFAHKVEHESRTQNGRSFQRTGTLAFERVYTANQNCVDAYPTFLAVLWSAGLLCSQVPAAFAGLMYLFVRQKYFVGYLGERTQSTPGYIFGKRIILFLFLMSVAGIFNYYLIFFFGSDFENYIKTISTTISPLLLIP
Experimental: Compound 9hj inhibited 5-LO mediated product synthesis in HEK293 cells transfected with only 5-LO, with IC50 of 900 nM. […] After preincubation of cells with 9hj for 15 min at 37°C, cells were stimulated with 2.5 µM A23187 plus 3 µM AA for 10 min at 37°C. Data are expressed as percentage of vehicle control (0.1% DMSO). 100% controls correspond to 157.48 ng mL^-1 for 5-LO transfected cells and 155.15 ng mL^-1 for 5-LO plus FLAP transfected cells.

[3] = test system: 5-LO mediated product formation; experiment: 5-LO mediated product formation in intact neutrophils stimulated with A23187 (cell-based); conditions: Homo sapiens, Neutrophil; A23187, in the presence of 20 µM to 80 µM exogenous arachidonic acid (Figure 2); read-out: IC50 5-LO mediated product formation in human neutrophils with exogenous AA

O=C(O)c1noc(-c2ccc(OCc3ccc4ccccc4n3)cc2)c1-c1ccc(Cl)cc1 [Compound 9hj, 4-(4-Chlorophenyl)-5-(4-(quinolin-2-ylmethoxy)phenyl)isoxazole-3-carboxylic acid]
Inhibitory activity shifted to the right by factor [1]: 10 | ID50 zymosan-induced peritonitis [2]: 7 mg/kg | IC50 (5-LO plus FLAP): 310 nM | IC50 [3]: 170 to 350 nM

— EP2949653A1, “ISOXAZOLE DERIVATIVES AS LEUKOTRIENE BIOSYNTHESIS INHIBITORS” (Banoglu, Erden, priority 2014, dated 2015)
